Source: patent US5089529A, “Butanol derivatives” (Nippon Shinyaku Co., Ltd., priority 1983, dated 1992)
Like-named read-outs stand apart in the source and are kept apart here.

Assays:
[1] = test system: Arrhythmia in Mice Caused by Aconitine; assay: Action against arrhythmia in mice caused by aconitine; type: in vivo, ddY-Male mice; conditions: Mus musculus
Procedure: A method by Nwangwu, et al (P.U. Nwangwu, T.L. Holcslow and S.J. Stohs: Arch. int. Pharmacodyn. 229, 219-226, 1977) was partly modified and the experiment was carried out. ddY-Male mice weighing 25 to 30 grams were used. One group was composed of four mice.
Arrhythmia was induced by infusion of aconitine at a concentration of 5 μg/ml in saline into a tail vein at the rate of 0.25 ml/min using a perfusion pump in mice anesthetized with Nembutal. Test drugs were administered orally or intraperitoneally 30 minutes prior to the start of infusion of aconitine. Incidentally, lidocaine was given intraperitoneally 15 minutes prior to administration of aconitine.
The status of arrhythmia was judged by an electrocardiographic recording (lead II) and, when the onset time of the arrhythmia was delayed more than "average time of untreated group plus 2SD", it was judged to have antiarrhythmic action. Then ED50 values were calculated by Weil's method from the effective rate at each dosage level.

[2] = test system: Arrhythmia in Dogs Caused by Digitalis; assay: Arrhythmia in dogs caused by digitalis (digoxin); type: in vivo, Beagle dogs; conditions: anesthetized dogs
From the text: Beagle dogs weighing 10 to 14 kg were used. […] The arrhythmia was judged by an electrocardiographic recording (lead II) and, when there was an appearance of descending or ascending big QRS complex, it was judged that ventricular arrhythmia appeared.

For `CCN(CC)CC(=O)Nc1c(C)cccc1C` [Lidocaine, reference compound], the ED50 ([1]; ip, read-out: ED50, i.p.) was 35.4 mg/kg, the “Duration of Action” value ([2]; 2 mg/kg intravenous) was 350 s and the “Efficacy Ratio” value ([2]; 2 mg/kg intravenous) was 50.0%.

For `CC(C)CN(CCCC(O)(c1ccccc1)c1ccccc1)CC(C)C` [Example 1, 4-Diisobutylamino-1,1-diphenyl-1-butanol], the ED50 ([1]; ip, read-out: ED50, i.p.) was 14.9 mg/kg, the ED50 ([1]; po, read-out: ED50, p.o.) was 17.7 mg/kg and the “Duration of Action” value ([2]; 1 mg/kg intravenous) was 400 s. For the same molecule, the “Efficacy Ratio” value ([2]; 1 mg/kg intravenous) was 50.0%, the “Duration of Action” value ([2]; 2 mg/kg intravenous) was 515 s and the “Efficacy Ratio” value ([2]; 2 mg/kg intravenous) was 62.5%.

With `CC(C)CNCCCC(O)(c1ccccc1)c1ccccc1` [Example 10, 1,1-Diphenyl-4-isobutylamino-1-butanol] the ED50 ([1]; ip, read-out: ED50, i.p.) was 11.5 mg/kg, the ED50 ([1]; po, read-out: ED50, p.o.) was 20.3 mg/kg and the “Duration of Action” value ([2]; 2 mg/kg intravenous) was 500 s. For the same molecule, the “Efficacy Ratio” value ([2]; 2 mg/kg intravenous) was 58.7%.

For `CC(C)N(CCC(C(N)=O)(c1ccccc1)c1ccccn1)C(C)C` (centres unmarked) [Disopyramide, reference compound], the ED50 ([1]; ip, read-out: ED50, i.p.) was 12.5 mg/kg, the ED50 ([1]; po, read-out: ED50, p.o.) was 29.7 mg/kg and the “Duration of Action” value ([2]; 2 mg/kg intravenous) was 365 s. For the same molecule, the “Efficacy Ratio” value ([2]; 2 mg/kg intravenous) was 57.1%.
